# Experimental data published in patent US9181218B2, “Compounds for improved stem cell differentiation into hepatocytes” (Hoffmann-La Roche Inc., priority 2013, dated 2015).
# Test system: interferon-stimulated genes (ISGs)
# Experiment: Microarray analysis of iCell Hepatocytes treated with the compound of example 1
# Type: cell-based, Human
# Description: iCell Hepatocytes treated with the compound of example 1 results in the up and down-regulation of a host of genes; including a kinetic effect on interferon-stimulated gene (ISGs) expression. See FIGS. 15-I and 15-II, 16-I and 16-II and 18 and Table 1.
compound,measurement,setting,value
"O=C(NCc1cccc(F)c1)c1cccc2nc(-c3c(NC[C@@H](O)c4ccccc4)cc[nH]c3=O)[nH]c12 [Example 1, 2-[4-((S)-2-hydroxy-2-phenyl-ethylamino)-2-oxo-1,2-dihydro-pyridin-3-yl]-3H-benzoimidazole-4-carboxylic acid 3-fluoro-benzylamide]",IFITM2 Raw Est Fold Change,24 HOUR,−1.90
same,IFITM3 Raw Est Fold Change,24 HOUR,−1.36
same,IFNGR1 Raw Est Fold Change,24 HOUR,−2.46
same,IGHM Raw Est Fold Change,24 HOUR,−2.00
same,IL6 Raw Est Fold Change,24 HOUR,−4.57
same,IL6ST Raw Est Fold Change,24 HOUR,−1.25
same,IL8 Raw Est Fold Change,24 HOUR,−4.32
same,IL28RA Raw Est Fold Change,24 HOUR,1.28
same,IMPA2 Raw Est Fold Change,24 HOUR,−1.80
same,IQGAP1 Raw Est Fold Change,24 HOUR,−1.70
same,IRF3 Raw Est Fold Change,24 HOUR,1.26
same,IRF7 Raw Est Fold Change,24 HOUR,−3.86
same,ISG20 Raw Est Fold Change,24 HOUR,−1.70
same,ISGF3G Raw Est Fold Change,24 HOUR,−1.37
same,ITGA2 Raw Est Fold Change,24 HOUR,−1.94
same,JAK1 Raw Est Fold Change,24 HOUR,−1.17
same,JAK2 Raw Est Fold Change,24 HOUR,−1.29
same,JUNB Raw Est Fold Change,24 HOUR,−4.94
same,KDELR2 Raw Est Fold Change,24 HOUR,−1.19
same,KIAA0040 Raw Est Fold Change,24 HOUR,−5.04
same,KPNB1 Raw Est Fold Change,24 HOUR,−1.12
same,LEPR Raw Est Fold Change,24 HOUR,2.89
same,LIFR Raw Est Fold Change,24 HOUR,1.33
same,LRG1 Raw Est Fold Change,24 HOUR,−2.10
same,LRP4 Raw Est Fold Change,24 HOUR,−2.17
same,MAFB Raw Est Fold Change,24 HOUR,2.60
same,MAFF Raw Est Fold Change,24 HOUR,−2.09
same,MAP3K8 Raw Est Fold Change,24 HOUR,−3.81
same,MCL1 Raw Est Fold Change,24 HOUR,−1.16
same,MLKL Raw Est Fold Change,24 HOUR,−1.78
same,MSR1 Raw Est Fold Change,24 HOUR,−2.06
same,MT1M Raw Est Fold Change,24 HOUR,−3.35
same,MT1X Raw Est Fold Change,24 HOUR,−6.73
same,MTHFD2L Raw Est Fold Change,24 HOUR,−2.20
same,MTMR1 Raw Est Fold Change,24 HOUR,−1.14
same,MYD88 Raw Est Fold Change,24 HOUR,1.15
same,MYT1 Raw Est Fold Change,24 HOUR,−3.59
same,N4BP1 Raw Est Fold Change,24 HOUR,−1.40
same,NFE2 Raw Est Fold Change,24 HOUR,−8.28
same,NFKBIA Raw Est Fold Change,24 HOUR,−1.38
same,NPAS2 Raw Est Fold Change,24 HOUR,−2.77
same,NUB1 Raw Est Fold Change,24 HOUR,−1.47
same,PADI2 Raw Est Fold Change,24 HOUR,2.66
same,PCGF2 Raw Est Fold Change,24 HOUR,1.44
same,PCMT1 Raw Est Fold Change,24 HOUR,−1.10
same,PCTK2 Raw Est Fold Change,24 HOUR,−1.85
same,PCTK3 Raw Est Fold Change,24 HOUR,1.59
same,PDGFA Raw Est Fold Change,24 HOUR,1.23
same,PDGFRL Raw Est Fold Change,24 HOUR,−1.86
same,PDK1 Raw Est Fold Change,24 HOUR,−1.48
same,PEX26 Raw Est Fold Change,24 HOUR,1.29
same,PIM3 Raw Est Fold Change,24 HOUR,−2.56
same,PLOD2 Raw Est Fold Change,24 HOUR,−1.22
same,PLSCR1 Raw Est Fold Change,24 HOUR,−3.34
same,PNRC1 Raw Est Fold Change,24 HOUR,−2.42
same,PPIC Raw Est Fold Change,24 HOUR,−1.23
same,PPP1R3D Raw Est Fold Change,24 HOUR,−1.49
same,PSCD1 Raw Est Fold Change,24 HOUR,−1.21
same,PSMA2 Raw Est Fold Change,24 HOUR,1.27
same,PSMB9 Raw Est Fold Change,24 HOUR,−1.86
same,PTEN Raw Est Fold Change,24 HOUR,1.23
same,RAB27A Raw Est Fold Change,24 HOUR,−2.33
same,RANBP1 Raw Est Fold Change,24 HOUR,1.13
same,RBCK1 Raw Est Fold Change,24 HOUR,1.34
same,RBL1 Raw Est Fold Change,24 HOUR,−4.92
same,RBMS1 Raw Est Fold Change,24 HOUR,−1.38
same,RHOH Raw Est Fold Change,24 HOUR,5.26
same,RXRA Raw Est Fold Change,24 HOUR,1.46
same,SAT Raw Est Fold Change,24 HOUR,−1.57
same,SDC2 Raw Est Fold Change,24 HOUR,1.96
same,SERPINB9 Raw Est Fold Change,24 HOUR,−1.86
same,SFPQ Raw Est Fold Change,24 HOUR,−1.39
same,SFTPC Raw Est Fold Change,24 HOUR,−1.66
same,SLC15A2 Raw Est Fold Change,24 HOUR,−1.58
same,SLC25A28 Raw Est Fold Change,24 HOUR,−1.54
same,SLC25A30 Raw Est Fold Change,24 HOUR,1.53
same,SMAD3 Raw Est Fold Change,24 HOUR,−1.19
same,SOAT2 Raw Est Fold Change,24 HOUR,4.03
same,SOCS1 Raw Est Fold Change,24 HOUR,−9.88
same,SOCS3 Raw Est Fold Change,24 HOUR,−3.51
same,SPTLC2 Raw Est Fold Change,24 HOUR,−10.08
same,SQLE Raw Est Fold Change,24 HOUR,−1.98
same,SQRDL Raw Est Fold Change,24 HOUR,−1.45
same,SSBP3 Raw Est Fold Change,24 HOUR,1.35
same,STAT1 Raw Est Fold Change,24 HOUR,−2.14
same,STEAP4 Raw Est Fold Change,24 HOUR,−65.16
same,TAP1 Raw Est Fold Change,24 HOUR,−1.60
same,TAP2 Raw Est Fold Change,24 HOUR,−1.54
same,TBX3 Raw Est Fold Change,24 HOUR,1.42
same,TCF7L2 Raw Est Fold Change,24 HOUR,−1.29
same,TEAD4 Raw Est Fold Change,24 HOUR,−2.33
same,TFPI Raw Est Fold Change,24 HOUR,−1.38
same,THBD Raw Est Fold Change,24 HOUR,−9.02
same,THBS1 Raw Est Fold Change,24 HOUR,−1.44
same,TMEM2 Raw Est Fold Change,24 HOUR,−1.35
same,TMEM49 Raw Est Fold Change,24 HOUR,−2.07
same,TMEM67 Raw Est Fold Change,24 HOUR,−4.34
same,TNFSF13B Raw Est Fold Change,24 HOUR,1.36
same,TRIM14 Raw Est Fold Change,24 HOUR,1.36
same,TRIM26 Raw Est Fold Change,24 HOUR,1.56
same,TXNIP Raw Est Fold Change,24 HOUR,−1.37
same,UBE2S Raw Est Fold Change,24 HOUR,−1.40
same,USP12 Raw Est Fold Change,24 HOUR,−1.96
same,USP25 Raw Est Fold Change,24 HOUR,−1.22
same,VAT1 Raw Est Fold Change,24 HOUR,1.21
same,YWHAE Raw Est Fold Change,24 HOUR,−1.11
same,ZFYVE26 Raw Est Fold Change,24 HOUR,1.31
same,ZNF24 Raw Est Fold Change,24 HOUR,−1.16
same,ZNF295 Raw Est Fold Change,24 HOUR,−1.84
same,ABHD5 Raw Est Fold Change,DAY 7,−2.05
same,ACSL1 Raw Est Fold Change,DAY 7,1.78
same,ADM Raw Est Fold Change,DAY 7,−3.85
same,AGXT Raw Est Fold Change,DAY 7,2.54
same,AHR Raw Est Fold Change,DAY 7,−2.08
same,AKR1B1 Raw Est Fold Change,DAY 7,−3.52
same,AKT3 Raw Est Fold Change,DAY 7,−5.29
same,ALCAM Raw Est Fold Change,DAY 7,−1.46
same,ALDH1A1 Raw Est Fold Change,DAY 7,1.54
same,AMPH Raw Est Fold Change,DAY 7,−21.01
same,APOL6 Raw Est Fold Change,DAY 7,1.36
same,ARHGDIB Raw Est Fold Change,DAY 7,−3.40
